Measured values taken from BindingDB's records for doi:10.1124/jpet.105.086363 (Wyeth, 2005).

What was measured:
D(3) dopamine receptor = D(3) dopamine receptor (Homo sapiens, UniProt P35462)
[1] = biological target: T1, 5-hydroxytryptamine receptor 1A (Homo sapiens, UniProt P08908)
T1 sequence (P08908 whole entry): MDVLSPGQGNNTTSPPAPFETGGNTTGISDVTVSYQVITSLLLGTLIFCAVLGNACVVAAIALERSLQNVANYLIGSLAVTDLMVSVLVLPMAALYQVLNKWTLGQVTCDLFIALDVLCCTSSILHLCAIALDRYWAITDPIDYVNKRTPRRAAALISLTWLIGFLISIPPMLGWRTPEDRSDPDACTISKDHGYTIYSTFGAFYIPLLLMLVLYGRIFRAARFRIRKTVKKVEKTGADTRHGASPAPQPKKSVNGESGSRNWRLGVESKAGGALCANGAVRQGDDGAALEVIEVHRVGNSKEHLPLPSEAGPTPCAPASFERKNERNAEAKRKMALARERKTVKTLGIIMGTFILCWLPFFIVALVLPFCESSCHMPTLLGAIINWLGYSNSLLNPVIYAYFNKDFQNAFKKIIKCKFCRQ

D(4) dopamine receptor = biological target: T2, D(4) dopamine receptor (Homo sapiens, UniProt P21917)
T2 sequence (P21917 whole entry): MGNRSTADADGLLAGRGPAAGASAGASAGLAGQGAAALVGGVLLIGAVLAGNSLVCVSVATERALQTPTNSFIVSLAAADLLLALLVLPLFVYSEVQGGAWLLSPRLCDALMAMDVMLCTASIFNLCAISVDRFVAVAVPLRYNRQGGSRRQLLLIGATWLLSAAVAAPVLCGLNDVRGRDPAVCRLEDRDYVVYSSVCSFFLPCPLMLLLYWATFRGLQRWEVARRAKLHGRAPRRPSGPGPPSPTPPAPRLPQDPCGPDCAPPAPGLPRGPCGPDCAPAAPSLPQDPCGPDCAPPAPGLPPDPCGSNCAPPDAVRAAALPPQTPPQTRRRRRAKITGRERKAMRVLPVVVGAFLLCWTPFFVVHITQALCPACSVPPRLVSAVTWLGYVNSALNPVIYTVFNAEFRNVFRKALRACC

D(2) dopamine receptor = D(2) dopamine receptor (Homo sapiens, UniProt P14416)
[2] = biological target: T3, Alpha-1A adrenergic receptor (Rattus norvegicus, UniProt P43140)
T3 sequence (P43140 whole entry): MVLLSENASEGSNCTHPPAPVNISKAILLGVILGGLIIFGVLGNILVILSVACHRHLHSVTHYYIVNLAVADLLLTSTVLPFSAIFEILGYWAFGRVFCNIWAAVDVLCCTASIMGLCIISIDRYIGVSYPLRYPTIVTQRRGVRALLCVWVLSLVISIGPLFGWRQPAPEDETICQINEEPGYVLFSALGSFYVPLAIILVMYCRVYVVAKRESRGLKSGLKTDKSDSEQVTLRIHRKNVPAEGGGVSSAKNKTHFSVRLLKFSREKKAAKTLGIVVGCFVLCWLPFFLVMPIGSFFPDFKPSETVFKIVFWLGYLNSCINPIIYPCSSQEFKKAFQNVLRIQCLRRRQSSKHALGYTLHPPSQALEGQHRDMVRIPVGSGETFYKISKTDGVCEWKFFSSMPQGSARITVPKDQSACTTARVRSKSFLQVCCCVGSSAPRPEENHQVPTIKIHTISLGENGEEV

D(2) dopamine receptor, sequence (P14416 whole entry): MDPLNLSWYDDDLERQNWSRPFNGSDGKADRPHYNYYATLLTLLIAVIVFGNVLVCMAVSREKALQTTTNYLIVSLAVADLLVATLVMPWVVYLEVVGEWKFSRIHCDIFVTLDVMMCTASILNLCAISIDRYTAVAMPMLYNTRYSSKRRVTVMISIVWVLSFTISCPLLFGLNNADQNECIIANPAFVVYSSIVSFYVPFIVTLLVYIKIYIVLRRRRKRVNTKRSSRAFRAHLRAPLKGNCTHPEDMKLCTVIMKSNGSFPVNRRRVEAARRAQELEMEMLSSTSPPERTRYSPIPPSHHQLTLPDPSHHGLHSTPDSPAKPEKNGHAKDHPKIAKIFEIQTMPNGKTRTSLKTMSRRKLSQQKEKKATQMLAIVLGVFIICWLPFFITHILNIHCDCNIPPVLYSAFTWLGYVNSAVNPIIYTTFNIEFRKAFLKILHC
D(3) dopamine receptor, sequence (P35462 as listed by the source): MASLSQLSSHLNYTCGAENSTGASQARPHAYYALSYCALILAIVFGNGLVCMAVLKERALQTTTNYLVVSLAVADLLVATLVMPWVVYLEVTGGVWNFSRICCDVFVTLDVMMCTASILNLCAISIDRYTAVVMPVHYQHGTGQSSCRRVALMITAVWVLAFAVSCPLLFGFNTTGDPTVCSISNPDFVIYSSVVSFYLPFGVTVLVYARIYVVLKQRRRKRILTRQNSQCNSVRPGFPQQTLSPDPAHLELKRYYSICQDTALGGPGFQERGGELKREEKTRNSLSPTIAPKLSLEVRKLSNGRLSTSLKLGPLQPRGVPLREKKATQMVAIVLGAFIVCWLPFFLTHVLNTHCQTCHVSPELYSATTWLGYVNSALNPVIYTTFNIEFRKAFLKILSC

Ki (D(3) dopamine receptor): 0.32 µM
Ki [1]: 0.0045 µM
Ki (D(4) dopamine receptor): 0.098 µM
Ki (D(2) dopamine receptor): 1.55 µM
Ki [2]: 0.248 µM
Structure (SMILES): C[C@H](CN(C(=O)c1ccc(C#N)cc1)c1ccccn1)N1CCN(c2cccc3c2OCCO3)CC1
